Key:
[1] = Spontaneous conversion of 1 to 13 under the assay conditions; type: physicochemical; settings: 90 min, in the presence or absence of DTT
[2] = Side-by-side LCMS/UV solution stability study; type: physicochemical; settings: 0.1 mg/mL in DMSO/H2O (5:1), within 24 h
cells = settings: ref 7b; cited from earlier work
tumor cell = settings: cited from earlier work
recombinant human PTP4A3 = recombinant human PTP4A3 (Homo sapiens, UniProt O75365); test: In vitro PTP4A3 phosphatase inhibition assay with DiFMUP substrate; type: biochemical
Chain of recombinant human PTP4A3 (O75365 whole entry): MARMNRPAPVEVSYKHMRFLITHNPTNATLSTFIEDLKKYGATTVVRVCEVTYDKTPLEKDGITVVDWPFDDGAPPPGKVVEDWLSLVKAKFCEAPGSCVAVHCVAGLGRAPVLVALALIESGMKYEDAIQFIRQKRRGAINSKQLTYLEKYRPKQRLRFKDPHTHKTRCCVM

Structure (SMILES)	Spontaneous conversion of 1 to 13 [1] [%]	Decomposition [2] [%]	Short-term cytotoxicity in cells (cells)	Inhibition of tumor cell anchorage-independent growth (tumor cell)	PTP4A3 inhibition (in words) (recombinant human PTP4A3; qualitative statement)	IC50 (recombinant human PTP4A3; read-out: IC50 [µM±S.D.], inhibition of PTP4A3 activity, n=3, DiFMUP 12 µM, 25 °C, 30 min, pH 7.0, 4 mM DTT) [µM]
Nc1c[nH]c(=O)c2cc(-c3ccccc3)sc12 [Compound 1]	≤ 5	> 80	does not have any short-term cytotoxicity	Significant inhibition		
O=c1[nH]ccc2sc(-c3ccccc3)cc12 [Compound 12]					remarkably less active than 1	> 80
